Series [1] is described as follows: Serum gallium quantitation in the adjuvant arthritis study. Particulars: daily oral 100 or 300 mg/kg, serum harvested one hour after final dosing. It counts as in vivo, Male Lewis rats. The method, then:
Prophylactic treatment was initiated seven days prior to adjuvant injection by dosing with control vehicle or gallium maltolate (100 or 300 mg/kg gallium maltolate, containing 16 or 47 mg/kg gallium, respectively, in suspension with 1% carboxymethyl cellulose) seven days prior to adjuvant injection. Dosing was by daily oral gavage until termination. The dexamethasone-treated control animals were injected with a daily oral dose of dexamethasone (0.1 mg/kg). Body weights were measured regularly during the course of the study to track the effect of the drugs on the weight loss induced by the developing adjuvant disease, and dose volumes were adjusted accordingly. Prior to the onset of swelling, but after the establishment of systemic disease (about 7 days after adjuvant injection), caliper measurements were made of ankle joints. Ankles were measured every day until 14 days post-adjuvant injection when the rats were anesthetized and sacrificed. Serum was harvested one hour after final dosing for gallium quantitation. Hind paws, liver, and spleen were weighed, fixed, and processed for histopathologic evaluation. […] Splenic changes of inflammation, increased extramedullary hematopoiesis, and lymphoid atrophy were scored 0-5 using criteria similar to those used for scoring of inflammation. The primary endpoint was hepatomegaly, as determined by liver weight and histopathology.

Series [2] deals with human patient exposed to a liver-damaging agent. Description: Human patient pretreated before exposure to a liver-damaging agent, serum liver enzymes monitored. It counts as in vivo. As to conditions: oral tablet or capsule to at least 10 ng/mL serum gallium before exposure; monitored every 12 hours. As for the experimental part:
A human patient, prior to exposure to a liver-damaging agent, is treated with gallium in the form of gallium maltolate combined with the appropriate standard excipients and/or fillers, in tablet or capsule form. Sufficient gallium maltolate is administered to obtain at least 10 ng/mL gallium in the patient's serum. The amount of gallium maltolate plus excipients necessary to reach this level is dependent on the formulation used and the size of the patient. The patient continues to take the oral medication in an amount to build the level of serum gallium and to maintain the level of at least 10 ng/mL serum.
After a period of up to 72 hours, or when the gallium serum concentration reaches the desired level, the patient is exposed to the liver-damaging agent.
The serum levels of liver enzymes are monitored at the start of the gallium treatment and every 12 hours thereafter. In particular, levels of […] and SGOT are measured. […] Gallium maltolate administration is discontinued after risk of liver damage is terminated.

The subject of series [3] is adjuvant arthritic rats (adjuvant-induced hepatomegaly). The experiment in a line: Adjuvant-induced acute arthritis model: hepatomegaly, liver weight and histopathology. The series is classed as in vivo. An excerpt:
A preclinical animal model was used to test the efficacy of oral gallium maltolate in treating hepatomegaly associated with adjuvant-induced acute arthritis. Male Lewis rats were used in the study. The study design was described in detail by Bendele et al. (1999) Toxicologic Pathology 27(1):134-142 and by Bendele (2001) J. Musculoskel. Neuron. Interact. 1(4):377-385.
Male Lewis rats (7 per group for gallium maltolate, 4 per group for normal controls and dexamethasone-treated controls) were injected with 100 μL of Freund's complete adjuvant/lipoidal amine (FCA/LA) subcutaneously at the base of the tail on study day 0 under anesthesia. There is a rapid onset (7 d) of arthritic symptoms in this model, including ankle inflammation, liver and spleen hypertrophy, bone resorption, and mild cartilage destruction.
Prophylactic treatment was initiated seven days prior to adjuvant injection by dosing with control vehicle or gallium maltolate (100 or 300 mg/kg gallium maltolate, containing 16 or 47 mg/kg gallium, respectively, in suspension with 1% carboxymethyl cellulose) seven days prior to adjuvant injection. Dosing was by daily oral gavage until termination. The dexamethasone-treated control animals were injected with a daily oral dose of dexamethasone (0.1 mg/kg). Body weights were measured regularly during the course of the study to track the effect of the drugs on the weight loss induced by the developing adjuvant disease, and dose volumes were adjusted accordingly. Prior to the onset of swelling, but after the establishment of systemic disease (about 7 days after adjuvant injection), caliper measurements were made of ankle joints. Ankles were measured every day until 14 days post-adjuvant injection when the rats were anesthetized and sacrificed. Serum was harvested one hour after final dosing for gallium quantitation. Hind paws, liver, and spleen were weighed, fixed, and processed for histopathologic evaluation. Adjuvant arthritic ankles were given scores of 0-5 (0=normal; 5=severe) for inflammation and bone resorption. Splenic changes of inflammation, increased extramedullary hematopoiesis, and lymphoid atrophy were scored 0-5 using criteria similar to those used for scoring of inflammation. The primary endpoint was hepatomegaly, as determined by liver weight and histopathology.

For series [4], the system named is Con A-treated mice (acute liver injury). The experiment in a line: Concanavalin A-induced acute immune-mediated hepatitis. It counts as in vivo, Balb/c male mice. As to conditions: 150 mg/kg oral gavage for 4 days prior to Con A. The method, then: Concanavalin A (Con A) is a powerful mitogen for and activator of T lymphocytes and its intravenous administration to mice initiates an acute immune-mediated hepatitis. The effect of preemptive gallium maltolate administration on the development of acute liver injury was assessed in vivo.
Liver injury was induced by injecting 6-8 week old Balb/c male mice (weight 25 g) with Con A, 25 mg/kg in 250 μl of phosphate-buffered saline via the tail vein. The test animals were divided into three groups of 2-8 mice each: • (a) Con A treatment • (b) Vehicle (1% carboxymethyl cellulose solution in water) per oral gavage for 4 days prior to Con A treatment • (c) 150 mg/kg gallium maltolate per oral gavage for 4 days prior to Con A treatment
For determination of serum alanine aminotransferase (ALT) levels, blood was drawn from different groups of mice 16 hours after administering Con A and measured by a commercially available enzyme assay. […] (FIG. 4). Histological assessment of centrilobular necrosis of the liver was rated for severity on a scale of 0 to 3.

[5] abbreviates: oral 100 and 300 mg/kg/day, adjuvant arthritic rats.

SMILES strings stand for the structures. Entries after “also recorded” stand apart in the source; their conditions may differ.

Take `Cc1occc(=O)c1[O-].Cc1occc(=O)c1[O-].Cc1occc(=O)c1[O-].[Ga+3]` [gallium maltolate]: the “serum gallium levels attained” value in series [1] is “dose-dependent”. Moreover, the “serum levels of liver enzymes (SDOT and SGOT)” value in series [2] was “do not rise to any significant extent”. Besides, the “lobular pattern of liver, histology (FIG. 3A)” value in series [3] (300 mg/kg/day oral for 21 days, 100x magnification) is recorded as “No accentuation of the lobular pattern”. For the same compound, the signs of toxicity result in series [3] (daily oral dosing for 14 days, 100 or 300 mg/kg, Lewis rats) was “no signs of toxicity”. The “liver pathology, histopathological examination of the livers” value in series [3] (gallium treated versus untreated adjuvant arthritic rats) is “inhibited the development of liver pathology”. In series [3] (setting [5]), the “liver hypertrophy (adjuvant-induced hepatomegaly)” value is recorded as “marked reduction; also recorded: Significant dose-dependent protection” and the spleen hypertrophy result is given as “marked reduction”. Also, the “serum alanine aminotransferase (ALT) levels” value in series [4] (blood 16 hours after Con A, versus the other two test groups) is “greatly reduced”. In series [4] (severity scale 0 to 3), the “centrilobular necrosis of the liver, histological assessment” value is given as “No necrosis”.

For the origin of these results see patent US20070128294A1, “Treatment and prevention of liver adverse conditions using gallium” (priority 2005, published 2007).
